“Also recorded” adds a separate entry of the source.

By MIC is commonly meant the smallest concentration in the dilution series that meets the test's criterion for growth inhibition. The low end stands for a more susceptible organism, the high end for a less susceptible organism.

Assay [1] deals with E. coli K-12 BW25113 VBNC cultures. Put plainly: VBNC antibiotic killing assay. It is filed as cell-based, Escherichia coli. To be noted: 16 h. The protocol:
Overnight cultures (16 h) of E. coli K-12 BW25113 grown in LB were diluted 1:1000 in LB and grown to a turbidity of 3.0 at 600 nm. Cells were washed three times with 0.85% NaCl to remove nutrients and incubated in 0.85% NaCl for 32 days until the VBNC population was ˜1,000-fold higher than the culturable population. […] Samples (0.5 mL) were diluted 1:1 with LB to stimulate cellular respiration for 10 min prior to staining with 1 μL of 1 mM RedoxSensor™ Green dye and 1 μL of 20 mM propidium iodide. Samples were visualized in a hemocytometer (Hausser Scientific, Horsham, Pa., USA) using an Olympus BX61 confocal microscope (Olympus, Tokyo, Japan) at 200× magnification in order to determine viability of the VBNC population. Cell counting data was averaged from four images and experiment was performed with at least two independent cultures.

For assay [2], the system named is gDNA (rrsG and murB) of E. coli K-12 BW25113/pCA24N. The assay can be described thus: qPCR of gDNA crosslinking in cells (in vivo). It is filed as cell-based, Escherichia coli. To be noted: MMC 100 μg/mL 1 h. How it is done: Overnight cultures (16 h) of E. coli K-12 BW25113/pCA24N grown in LB were diluted 1:1000 in buffered LB and grown to the desired turbidity. For exponential phase cells (i.e., non-persisters), cultures were grown to a turbidity of 2.0 at 600 nm. For rifampicin-induced persisters, cultures were grown to a turbidity of 0.8 at 600 nm, exposed to rifampicin (100 μg/mL) for 30 min, centrifuged, and resuspended in fresh medium to remove the rifampicin. Non-persister and rifampicin-induced persister cultures were treated with MMC (100 μg/mL) for 1 h. gDNA was extracted, using an UltraClean Microbial DNA Isolation Kit (MO BIO Laboratories, Carlsbad, Calif., USA), from samples taken before and after MMC treatment and 100 ng of DNA was used for qPCR of rrsG and murB using the GoTaq qPCR Master Mix (Promega, Madison, Wis., USA) and the StepOne Real-Time PCR System (Applied Biosystems, Foster City, Calif., USA) (primers are shown in Table 2). As a positive control, 3 μg of gDNA from BW25113 non-persisters was crosslinked in vitro with 500 μg/mL (1.5 mM) MMC in 0.2 mM EDTA, 50 mM NaCl, and 5 mM Tris (pH=7.6) with Na2S2O4 added six times at 10 min intervals to reach a final concentration of 2.25 mM (1.5× molarity of MMC). The in vitro crosslinking reaction was performed anaerobically on ice and the reaction was stopped by exposure to air.
(In general: Quantitative PCR measures a nucleic acid by following its amplification.)

Assay [3] relates to EHEC, S. aureus, and P. aeruginosa PAO1. It is filed as cell-based. To be noted: mono- and co-cultures in wound-like medium, 5 h treatment. The protocol:
Overnight cultures (16 h) of EHEC, S. aureus, and P. aeruginosa PAO1 were grown in LB (TSB for S. aureus), washed with 0.85% NaCl solution, and diluted 1:1000 (as mono-cultures or co-cultures) in wound-like medium (WLM) (45% Bolton broth, 50% heparinized bovine plasma, and 5% laked horse blood). […] Samples containing S. aureus were coagulated, so sections of coagulated WLM were cut and weighed add appropriate amounts of antibiotics. Coagulated samples were triturated and vortexed to release cells prior to measuring cell viability.

For another assay, the system named is E. coli K-12. The assay can be described thus: Minimum inhibitory concentration (MIC) assay. To be noted: 16 h, lack of turbidity. It is filed as cell-based, Escherichia coli. The protocol: Minimum inhibitory concentration (MIC) assay. To determine the MICs of cisplatin for E. coli K-12, enterohemorrhagic E. coli (EHEC), S. aureus, and P. aeruginosa (PAO1 and PA14), freshly inoculated cultures (at least two independent cultures) in buffered LB (TSB for S. aureus) were incubated for 16 h with varying concentrations of cisplatin, and growth inhibition was assayed by the lack of turbidity.

For assay [4], the system named is S. aureus clinical isolates 5B and 50F. The assay can be described thus: Persister cell assay, clinical isolates. It is filed as cell-based, Staphylococcus aureus. To be noted: for survival: stationary phase, 500 μg/mL of cisplatin. How it is done: For the persister cell assay of the pathogens, stationary-phase cells were used. Cultures of EHEC, P. aeruginosa, and S. aureus were prepared by a 1:1000 dilution of overnight grown cultures (LB medium for EHEC and P. aeruginosa, TSB for S. aureus) into fresh buffered LB medium for EHEC, M9-glucose for P. aeruginosa, and TSB for S. aureus and re-growing the cells to a turbidity of 3 to 4 at 600 nm for EHEC and S. aureus and growing for 24 h for P. aeruginosa. […]

For the next assay, the system named is S. aureus ATCC29213. Put plainly: Persister cell assay of pathogens (stationary phase). It is filed as cell-based, Staphylococcus aureus. To be noted: stationary phase cells, TSB; cisplatin 500 μg/mL, 1.7×MIC, 3 h. How it is done:
For the persister cell assay of the pathogens, stationary-phase cells were used. Cultures of EHEC, P. aeruginosa, and S. aureus were prepared by a 1:1000 dilution of overnight grown cultures (LB medium for EHEC and P. aeruginosa, TSB for S. aureus) into fresh buffered LB medium for EHEC, M9-glucose for P. aeruginosa, and TSB for S. aureus and re-growing the cells to a turbidity of 3 to 4 at 600 nm for EHEC and S. aureus and growing for 24 h for P. aeruginosa. Stationary-phase cultures of EHEC (buffered LB medium), P. aeruginosa (M9-glucose medium), and S. aureus (TSB medium) were then treated with cisplatin (500 μg/mL for EHEC and S. aureus, 250 μg/mL for P. aeruginosa) for 3 h (250 mL flask, 250 rpm).

`CO[C@@]12[C@H](COC(N)=O)C3=C(C(=O)C(C)=C(N)C3=O)N1C[C@@H]1N[C@@H]12` [MMC, mitomycin C]: the “fold more effective at killing VBNC cells than ciprofloxacin” value in assay [1] (VBNC population (RedoxSensor Green), MMC 10 μg/mL vs ciprofloxacin 5 μg/mL) was 7 fold. For the same molecule, in assay [1] (culturable population of VBNC cultures, MMC 10 μg/mL, ciprofloxacin 5 μg/mL), the “survival of the culturable population” value is “eradicates the culturable population; also recorded: eradicating the culturable population”. The “Fold Change in amplifiable DNA” value in assay [2] (Non-persisters, murB) was −5.13±0.14 fold; in assay [2] (Non-persisters, rrsG), −5.95±0.20 fold; in assay [2] (Persisters, murB), −5.99±0.50 fold; in assay [2] (Persisters, rrsG) it was −5.01±0.51 fold. Besides, the “effectiveness under wound-like conditions” value in assay [3] was “eradicates pathogens; also recorded: more effective than ciprofloxacin and ampicillin”.
Consider `N.N.[Cl][Pt][Cl]` [cisplatin, cis-diamminodichloroplatinum(II)], for which the MIC against E. coli K-12 worked out at 100 mg/L. Moreover, the “cell viability after treatment” value in assay [4] (both clinical isolates, 800 μg/mL) was “completely eradicate”. The survival was 2.5±3.5% in assay [4] (isolate 5B), 10±4% in assay [4] (isolate 50F) and 0.0001±0.0001% in the assay on S. aureus ATCC29213.

These data come from patent publication US10238689B2, “Methods for combating bacterial infections by killing persister cells with mitomycin C and/or cisplatin” (THE PENN STATE RESEARCH FOUNDATION, priority 2015, dated 2019).
